# In patent US20130072430A1, “METHODS FOR TREATMENT OR PROPHYLAXIS OF KIDNEY OR LIVER DYSFUNCTION” (NPS PHARMACEUTICALS, INC., priority 2010, published 2013):
# System: Human patients with short bowel syndrome
# Test: Example 1: liver diagnostic biomarkers (total bilirubin, ALT, AST, ALP) in short bowel syndrome patients, every four weeks for 24 weeks
# Format: in vivo
# Set-up: AST (SGOT) Change from Baseline, Median / ALT (SGPT), Median / TOTAL BILIRUBIN, Median / TOTAL BILIRUBIN Change from Baseline, Median / ALT (SGPT) Change from Baseline, Median / AST (SGOT), Median: unit not given here
# Description: Human patients with short bowel syndrome were divided into three groups: a control group (16 total individuals) to receive placebo, an experimental group (35 total individuals) to receive teduglutide at 0.05 mg/kg/day throughout the study, and an experimental group (32 total individuals) to receive teduglutide at 0.1 mg/kg/day throughout the study. Patients were treated by subcutaneous injection of placebo or the appropriate dose of teduglutide. As individuals with short bowel syndrome are likely to experience associated liver and kidney disease, known biomarkers of liver and kidney function were monitored every four weeks, for 24 weeks. The liver biomarkers tested included total bilirubin, ALT and AST and ALP. The kidney biomarkers tested included urea nitrogen, creatinine and GFR. Before administration of placebo or teduglutide, diagnostic biomarker levels were tested to establish a baseline for each individual.
# To visualize the effect of GLP-2 on the levels of the diagnostic biomarkers, the average change from baseline was calculated for the placebo and teduglutide treated groups for each visit after a baseline was established. The average change from baseline of each group is depicted in FIGS. […]. The numerical figures for each diaanostic biomarker at each time point are depicted in Table 1.
# The efficacy of teduglutide in treating liver dysfunction was further tested by sorting the data into two groups: individuals with abnormal baseline values of liver diagnostic biomarkers; and individuals with normal baseline values of liver diagnostic biomarkers. The mean diagnostic biomarker change from baseline for these two groups is shown for ALT (FIGS. 5 and 6) and AST (FIGS. 7 and 8). […] These changes were significant when compared to baseline levels for the group, and when compared to placebo (see FIGS. 5 and 7).
# The raw data for this sorting is reproduced in Table 2 below.
structure (smiles),measurement,setting,value
CC[C@H](C)[C@H](NC(=O)[C@H](Cc1ccccc1)NC(=O)[C@H](CC(=O)O)NC(=O)[C@H](CCCNC(=N)N)NC(=O)[C@H](C)NC(=O)[C@H](C)NC(=O)[C@H](CC(C)C)NC(=O)[C@H](CC(N)=O)NC(=O)[C@H](CC(=O)O)NC(=O)[C@H](CC(C)C)NC(=O)[C@@H](NC(=O)[C@@H](NC(=O)[C@H](CC(N)=O)NC(=O)[C@H](CCSC)NC(=O)[C@H](CCC(=O)O)NC(=O)[C@H](CC(=O)O)NC(=O)[C@H](CO)NC(=O)[C@H](Cc1ccccc1)NC(=O)[C@H](CO)NC(=O)CNC(=O)[C@H](CC(=O)O)NC(=O)CNC(=O)[C@@H](N)Cc1c[nH]cn1)[C@@H](C)O)[C@@H](C)CC)C(=O)N[C@@H](CC(N)=O)C(=O)N[C@@H](Cc1c[nH]c2ccccc12)C(=O)N[C@@H](CC(C)C)C(=O)N[C@H](C(=O)N[C@@H](CCC(N)=O)C(=O)N[C@H](C(=O)N[C@@H](CCCCN)C(=O)N[C@H](C(=O)N[C@H](C(=O)N[C@@H](CC(=O)O)C(=O)O)[C@@H](C)O)[C@@H](C)CC)[C@@H](C)O)[C@@H](C)CC [teduglutide],"ALT (SGPT) Change from Baseline, Median","0.05 mg/kg/day, DW24",−5.0
same,"ALT (SGPT), Mean (SD)","0.05 mg/kg/day, DW24",31.7 (26.63)
same,"ALT (SGPT), Median","0.05 mg/kg/day, DW24",20.0
same,"AST (SGOT) Change from Baseline, Mean (SD)","0.05 mg/kg/day, DW24",−6.8 (14.29)
same,"AST (SGOT) Change from Baseline, Median","0.05 mg/kg/day, DW24",−4.5
same,"AST (SGOT), Mean (SD)","0.05 mg/kg/day, DW24",27.7 (10.23)
same,"AST (SGOT), Median","0.05 mg/kg/day, DW24",25.0
same,"TOTAL BILIRUBIN Change from Baseline, Mean (SD)","0.05 mg/kg/day, DW24",−0.5 (7.11)
same,"TOTAL BILIRUBIN Change from Baseline, Median","0.05 mg/kg/day, DW24",0.0
same,"TOTAL BILIRUBIN, Mean (SD)","0.05 mg/kg/day, DW24",10.0 (6.28)
same,"TOTAL BILIRUBIN, Median","0.05 mg/kg/day, DW24",8.0
same,"ALKALINE PHOSPHATASE Change from Baseline, Mean (SD)","0.10 mg/kg/day, DW4",−11.3 (32.19)
same,"ALKALINE PHOSPHATASE Change from Baseline, Median","0.10 mg/kg/day, DW4",−10.5
same,"ALKALINE PHOSPHATASE, Mean (SD)","0.10 mg/kg/day, DW4",147.5 (74.98)
same,"ALKALINE PHOSPHATASE, Median","0.10 mg/kg/day, DW4",124.0
same,"ALT (SGPT) Change from Baseline, Mean (SD)","0.10 mg/kg/day, DW4",−11.6 (22.98)
same,"ALT (SGPT) Change from Baseline, Median","0.10 mg/kg/day, DW4",−6.5
same,"ALT (SGPT), Mean (SD)","0.10 mg/kg/day, DW4",38.6 (23.30)
same,"ALT (SGPT), Median","0.10 mg/kg/day, DW4",30.0
same,"AST (SGOT) Change from Baseline, Mean (SD)","0.10 mg/kg/day, DW4",−7.3 (15.21)
same,"AST (SGOT) Change from Baseline, Median","0.10 mg/kg/day, DW4",−5.0
same,"AST (SGOT), Mean (SD)","0.10 mg/kg/day, DW4",33.5 (17.00)
same,"AST (SGOT), Median","0.10 mg/kg/day, DW4",28.0
same,"TOTAL BILIRUBIN Change from Baseline, Mean (SD)","0.10 mg/kg/day, DW4",−4.0 (17.41)
same,"TOTAL BILIRUBIN Change from Baseline, Median","0.10 mg/kg/day, DW4",−1.0
same,"TOTAL BILIRUBIN, Mean (SD)","0.10 mg/kg/day, DW4",9.0 (5.65)
same,"TOTAL BILIRUBIN, Median","0.10 mg/kg/day, DW4",7.0
same,"ALKALINE PHOSPHATASE Change from Baseline, Mean (SD)","0.10 mg/kg/day, DW8",−21.2 (41.41)
same,"ALKALINE PHOSPHATASE Change from Baseline, Median","0.10 mg/kg/day, DW8",−20.0
same,"ALKALINE PHOSPHATASE, Mean (SD)","0.10 mg/kg/day, DW8",139.2 (75.84)
same,"ALKALINE PHOSPHATASE, Median","0.10 mg/kg/day, DW8",114.0
same,"ALT (SGPT) Change from Baseline, Mean (SD)","0.10 mg/kg/day, DW8",−15.7 (26.87)
same,"ALT (SGPT) Change from Baseline, Median","0.10 mg/kg/day, DW8",−8.0
same,"ALT (SGPT), Mean (SD)","0.10 mg/kg/day, DW8",34.1 (19.74)
same,"ALT (SGPT), Median","0.10 mg/kg/day, DW8",28.5
same,"AST (SGOT) Change from Baseline, Mean (SD)","0.10 mg/kg/day, DW8",−10.3 (16.56)
same,"AST (SGOT) Change from Baseline, Median","0.10 mg/kg/day, DW8",−5.0
same,"AST (SGOT), Mean (SD)","0.10 mg/kg/day, DW8",29.3 (12.52)
same,"AST (SGOT), Median","0.10 mg/kg/day, DW8",28.0
same,"TOTAL BILIRUBIN Change from Baseline, Mean (SD)","0.10 mg/kg/day, DW8",−3.8 (13.91)
same,"TOTAL BILIRUBIN Change from Baseline, Median","0.10 mg/kg/day, DW8",−1.0
same,"TOTAL BILIRUBIN, Mean (SD)","0.10 mg/kg/day, DW8",9.4 (9.80)
same,"TOTAL BILIRUBIN, Median","0.10 mg/kg/day, DW8",7.0
same,"ALKALINE PHOSPHATASE Change from Baseline, Mean (SD)","0.10 mg/kg/day, DW12",−13.1 (55.43)
same,"ALKALINE PHOSPHATASE Change from Baseline, Median","0.10 mg/kg/day, DW12",−16.5
same,"ALKALINE PHOSPHATASE, Mean (SD)","0.10 mg/kg/day, DW12",145.9 (83.34)
same,"ALKALINE PHOSPHATASE, Median","0.10 mg/kg/day, DW12",115.0
same,"ALT (SGPT) Change from Baseline, Mean (SD)","0.10 mg/kg/day, DW12",−10.6 (30.82)
same,"ALT (SGPT) Change from Baseline, Median","0.10 mg/kg/day, DW12",−11.0
same,"ALT (SGPT), Mean (SD)","0.10 mg/kg/day, DW12",40.4 (22.11)
same,"ALT (SGPT), Median","0.10 mg/kg/day, DW12",35.0
same,"AST (SGOT) Change from Baseline, Mean (SD)","0.10 mg/kg/day, DW12",−3.3 (21.39)
same,"AST (SGOT) Change from Baseline, Median","0.10 mg/kg/day, DW12",−3.5
same,"AST (SGOT), Mean (SD)","0.10 mg/kg/day, DW12",36.4 (20.41)
same,"AST (SGOT), Median","0.10 mg/kg/day, DW12",31.5
same,"TOTAL BILIRUBIN Change from Baseline, Mean (SD)","0.10 mg/kg/day, DW12",−2.9 (12.93)
same,"TOTAL BILIRUBIN Change from Baseline, Median","0.10 mg/kg/day, DW12",0.0
same,"TOTAL BILIRUBIN, Mean (SD)","0.10 mg/kg/day, DW12",10.3 (11.39)
same,"TOTAL BILIRUBIN, Median","0.10 mg/kg/day, DW12",7.0
same,"ALKALINE PHOSPHATASE Change from Baseline, Mean (SD)","0.10 mg/kg/day, DW16",−21.3 (59.79)
same,"ALKALINE PHOSPHATASE Change from Baseline, Median","0.10 mg/kg/day, DW16",−20.5
same,"ALKALINE PHOSPHATASE, Mean (SD)","0.10 mg/kg/day, DW16",137.7 (81.33)
same,"ALKALINE PHOSPHATASE, Median","0.10 mg/kg/day, DW16",108.5
same,"ALT (SGPT) Change from Baseline, Mean (SD)","0.10 mg/kg/day, DW16",−10.0 (35.59)
same,"ALT (SGPT) Change from Baseline, Median","0.10 mg/kg/day, DW16",−10.0
same,"ALT (SGPT), Mean (SD)","0.10 mg/kg/day, DW16",39.7 (27.97)
same,"ALT (SGPT), Median","0.10 mg/kg/day, DW16",30.0
same,"AST (SGOT) Change from Baseline, Mean (SD)","0.10 mg/kg/day, DW16",−6.6 (22.80)
same,"AST (SGOT) Change from Baseline, Median","0.10 mg/kg/day, DW16",−4.0
same,"AST (SGOT), Mean (SD)","0.10 mg/kg/day, DW16",33.0 (16.71)
same,"AST (SGOT), Median","0.10 mg/kg/day, DW16",30.0
same,"TOTAL BILIRUBIN Change from Baseline, Mean (SD)","0.10 mg/kg/day, DW16",−3.6 (14.89)
same,"TOTAL BILIRUBIN Change from Baseline, Median","0.10 mg/kg/day, DW16",−0.5
same,"TOTAL BILIRUBIN, Mean (SD)","0.10 mg/kg/day, DW16",9.8 (9.14)
same,"TOTAL BILIRUBIN, Median","0.10 mg/kg/day, DW16",7.5
same,"ALKALINE PHOSPHATASE Change from Baseline, Mean (SD)","0.10 mg/kg/day, DW20",−18.5 (63.67)
same,"ALKALINE PHOSPHATASE Change from Baseline, Median","0.10 mg/kg/day, DW20",−23.0
same,"ALKALINE PHOSPHATASE, Mean (SD)","0.10 mg/kg/day, DW20",137.1 (82.59)
same,"ALKALINE PHOSPHATASE, Median","0.10 mg/kg/day, DW20",107.0
same,"ALT (SGPT) Change from Baseline, Mean (SD)","0.10 mg/kg/day, DW20",−8.2 (37.70)
same,"ALT (SGPT) Change from Baseline, Median","0.10 mg/kg/day, DW20",−9.0
same,"ALT (SGPT), Mean (SD)","0.10 mg/kg/day, DW20",41.3 (29.36)
same,"ALT (SGPT), Median","0.10 mg/kg/day, DW20",29.0
same,"AST (SGOT) Change from Baseline, Mean (SD)","0.10 mg/kg/day, DW20",−4.9 (24.96)
same,"AST (SGOT) Change from Baseline, Median","0.10 mg/kg/day, DW20",−2.5
same,"AST (SGOT), Mean (SD)","0.10 mg/kg/day, DW20",34.9 (19.82)
